# Assay results reported in patent US10561739B2, “Targeted pyrrolobenzodiazapine conjugates” (priority 2010, dated 2020).
# Tests used:
# Format in all cases: cell-based
# AML cell line HEL = assay: Free drug 96-hour resazurin cytotoxicity assay, HEL; conditions: Table 1, 96-hour assay, read-out: IC50 Summary for Free Drugs, HEL
# Description: (§1) The cytotoxicity of various free drug compounds was tested on a renal cell cancer cell line, 786-O, a Hodgkin lymphoma cell line, L428 and two AML cell lines, HL60 and HEL.
# (§2) For a 96-hour assay, cells cultured in log-phase growth were seeded for 24 h in 96-well plates containing 150 μL RPMI 1640 supplemented with 20% FBS. Serial dilutions of test article (i.e., free drug) in cell culture media were prepared at 4× working concentration; 50 μL of each dilution was added to the 96-well plates. Following addition of test article, the cells were incubated with test articles for 4 days at 37° C. Resazurin was then added to each well to achieve a 50 μM final concentration, and the plates were incubated for an additional 4 h at 37° C. The plates were then read for the extent of dye reduction on a Fusion HT plate reader (Packard Instruments, Meridien, Conn., USA) with excitation and emission wavelengths of 530 and 590 nm, respectively. The IC50 value, determined in triplicate, is defined here as the concentration that results in a 50% reduction in cell growth relative to untreated controls.
# [1] = test system: Hodgkin lymphoma cell line, L428; assay: Free drug 96-hour resazurin cytotoxicity assay, L428; conditions: Homo sapiens, L-428, Table 1, 96-hour assay, read-out: IC50 Summary for Free Drugs, L428
# Description: as §1, §2
# AML cell line HL60 = assay: Free drug 96-hour resazurin cytotoxicity assay, HL60; conditions: Homo sapiens, HL-60, Table 1, 96-hour assay, read-out: IC50 Summary for Free Drugs, HL60
# Description: as §1, §2
# [2] = test system: renal cell cancer cell line, 786-O; assay: Free drug 96-hour resazurin cytotoxicity assay, 786-O; conditions: Homo sapiens, 786-0, Table 1, 96-hour assay, read-out: IC50 Summary for Free Drugs, 786-O
# Description: as §1, §2
# MCF-7 cells [3] = assay: Free drug cytotoxicity assay, MCF-7 (Table 2); conditions: Homo sapiens, MCF7; Table 2; read-out: IC50 Summary for Free Drugs, MCF-7
# Description: as §2
# Referring to the following Table 2, the activity of compounds 28, 30 and 32 is shown on L428, 786-O, HEL, HL-60 and MCF-7 cells, as well as the activity for compound 19 on MCF-7 cells.
# A2780 parental cell line = assay: A2780 assay (MTT cytotoxicity); conditions: Homo sapiens, 72 hours
# Description: The A2780 parental cell line was grown in Dulbecco's Modified Eagles' Media (DMEM) containing ˜10% Foetal Calf Serum (FCS) and ˜1% 200 mM L-Glutamine solution and grown in Corning Cellbind 75 cm^2 flasks.
# A 190 μl cell suspension was added (at 1×10^4) to each well of columns 2 to 11 of a 96 well plate (Nunc 96F flat bottom TC plate), 190 μl of media was added to each well of columns 1 and 12. The media was Dulbecco's Modified Eagles' Media (DMEM) (which included ˜10% Foetal Calf Serum (FCS) and ˜1% 200 mM L-Glutamine solution).
# Plates were incubated overnight at 37° C. before addition of drug if cells were adherent, 200 μM of the test compound solutions (in 100% DMSO) were serially diluted across a 96 well plate. Each resulting point was then further diluted 1/10 into sterile distilled water (SDW).
# To the cell negative blanks and compound negative control wells, 10% DMSO was added at 5% v/v. Assay plates were incubated for the following durations at 37° C. in 5% CO2 in a humidified incubator for 72 hours. Following incubation, MTT solution to a final concentration of 1.5 μM was added to each well. The plates were then incubated for a further 4 hours at 37° C. in 5% CO2 in a humidified incubator. […]
# Plates were read at 540 nm absorbance using an Envision plate reader. Data was analysed using Microsoft Excel and GraphPad Prism and IC50 values obtained.
# THP-1 cells = assay: Free drug 48 hour Cell Titer Glo cytotoxicity, THP-1; conditions: Homo sapiens, Table 3, 48 hours, read-out: IC50 Summary for Free Drugs, THP-1
# Description: (§3) Referring to the following Table 3, the activities of compounds 23, 25, are compared to that of compound 11 on 786-O, Caki-1, MCF-7, HL-60, THP-1, HEL, and TF1 cells. Cells were plated in 150 μL growth media per well into black-sided clear-bottom 96-well plates (Costar, Corning) and allowed to settle for 1 hour in the biological cabinet before placing in the incubator at 37° C., 5% CO2. The following day, 4× concentration of drug stocks were prepared, and then titrated as 10-fold serial dilutions producing 8-point dose curves and added at 50 μl per well in duplicate. Cells were then incubated for 48 hours at 37° C., 5% CO2. Cytotoxicity was measure by incubating with 100 μL Cell Titer Glo (Promega) solution for 1 hour, and then luminescence was measured on a Fusion HT plate reader (Perkin Elmer). Data was processed with Excel (Microsoft) and GraphPad (Prism) to produce dose response curves and IC50 values were generated and data collected.
# MCF-7 cells [4] = assay: Free drug 48 hour Cell Titer Glo cytotoxicity, MCF-7; conditions: Homo sapiens, MCF7, Table 3, 48 hours, read-out: IC50 Summary for Free Drugs, MCF-7
# Description: as §3
# Caki-1 cells = assay: Free drug 48 hour Cell Titer Glo cytotoxicity, Caki-1; conditions: Homo sapiens, Table 3, 48 hours, read-out: IC50 Summary for Free Drugs, Caki-1
# Description: as §3
# HL-60 cells = assay: Free drug 48 hour Cell Titer Glo cytotoxicity, HL-60; conditions: Homo sapiens, Table 3, 48 hours, read-out: IC50 Summary for Free Drugs, HL-60
# Description: as §3
# 786-O cells = assay: Free drug 48 hour Cell Titer Glo cytotoxicity, 786-O; conditions: Homo sapiens, 786-0, Table 3, 48 hours, read-out: IC50 Summary for Free Drugs, 786-O
# Description: as §3
# HEL cells = assay: Free drug 48 hour Cell Titer Glo cytotoxicity, HEL; conditions: Homo sapiens, Table 3, 48 hours, read-out: IC50 Summary for Free Drugs, HEL
# Description: as §3
# TF1a cells = assay: Free drug 48 hour Cell Titer Glo cytotoxicity, TF1a; conditions: TF-1a, Table 3, 48 hours, read-out: IC50 Summary for Free Drugs, TF1a
# Description: as §3
compound,measurement,setting,value
"COc1ccc(C2=CN3C(=O)c4cc(OC)c(OCCCOc5cc6c(cc5OC)C(=O)N5C=C(c7cccc(N)c7)C[C@H]5C=N6)cc4N=C[C@@H]3C2)cc1 [Compound 19, (S)-2-(3-aminophenyl)-7-methoxy-8-(3-((S)-7-methoxy-2-(4-methoxyphenyl)-5-oxo-5,11a-dihydro-1H-pyrrolo[2,1-c][1,4]benzodiazepine-8-yloxy)propyloxy)-1H-pyrrolo[2,1-c][1,4]benzodiazepine-5(11aH)-one]",IC50,AML cell line HEL,0.2 nM
same,IC50,[1],1 nM
same,IC50,AML cell line HL60,0.6 nM
same,IC50,[2],0.5 nM
same,IC50,MCF-7 cells [3],5 nM
"COc1ccc(C2=CN3C(=O)c4cc(OC)c(OCCCOc5cc6c(cc5OC)C(=O)N5C=C(c7ccc(N)cc7)C[C@H]5C=N6)cc4N=C[C@@H]3C2)cc1 [Compound 11, (S)-2-(4-aminophenyl)-7-methoxy-8-(3-((S)-7-methoxy-2-(4-methoxyphenyl)-5-oxo-5,11a-dihydro-1H-pyrrolo[2,1-c][1,4]benzodiazepine-8-yloxy)propoxy)-1H-pyrrolo[2,1-c][1,4]benzodiazepine-5(11aH)-one]",IC50,A2780 parental cell line,11700 nM
same,IC50,THP-1 cells,1 nM
same,IC50,MCF-7 cells [4],1 nM
same,IC50,Caki-1 cells,0.2 nM
same,IC50,HL-60 cells,0.01 nM
same,IC50,786-O cells,0.4 nM
same,IC50,HEL cells,0.03 nM
same,IC50,TF1a cells,1 nM
